Key:
[1] = Study 1 Part 2: PK with and without a high-fat meal; format: in vivo, human; details: 5 mg single dose
Description: Study 1 was a 2-part single-center trial in healthy adult male volunteers.
After a 7-day washout period, participants were crossed over to the other condition.

glucosylceramide (GL-1) = assay: Clinical study in GD-3 patients: GL-1 in plasma and CSF; format: in vivo, human; details: for GL-1 (% change): 52-weeks compared to baseline; for GL-1 concentration, 52-weeks (mean) / GL-1 concentration, 52-weeks: 15 mg/day + imiglucerase; for GL-1 concentration, 52-weeks: all six patients
Protocol: The endpoint assessments are related to safety, CSF biomarkers, pharmacokinetics/pharmacodynamics, systemic disease, and neuroimaging and neurological function (CNS/neurological manifestations).
During the study patients were evaluated for safety and tolerability, CSF and plasma biomarkers (glucosylceramide, GL-1; glucosylsphingosine, lyso-GL1), pharmacokinetics, markers for systemic disease (spleen and liver volume measured by magnetic resonance imaging (MRI), platelet count, hemoglobin levels), indicia of interstitial lung disease (high resolution pulmonary computed tomography (CT)), and horizontal saccadic eye movement. In addition, exploratory biomarkers were quantified in CSF of GD3 patients: ceramide (the precursor of GL-1), chitotriosidase (CHITO), GM3, and GPNMB. Symptoms of ataxia were measured using the SARA scale, neurological symptoms were measured using the trail making test, and functional MRI was used to assess neural connectivity in the brain.
Over all six GD3 patients, plasma and CSF GL-1 and lyso-GL-1 concentrations were as follows:
At Week 52, the CSF lyso-GL1 concentrations for Patient 5 were above the upper limit of quantification (ULOQ; >100 pg/mL), and biomarker results for CSF lyso-GL1 were therefore imputed using the exact ULOQ values. […] Mean results for the other study subjects were as follows (N=10; Patient 5 excluded): […]

[2] = system: adult patients with Gaucher disease Type 3; assay: Clinical study in GD-3 patients: vMRI brain tissue volume (TBM analysis); format: in vivo, human; details: for Group A mean change in volume from Baseline to Week 52: Group A (eight patients), 15 mg/day + imiglucerase; for Patient 5 change in volume from Baseline to Week 52: Patient 5 (Compound 2 below LLOQ after 52 weeks)
Description: Neurological function was further evaluated using volumetric magnetic resonance imaging (vMRI). The vMRI data was collected at screening sessions at baseline and after 52 weeks of the treatment regime for eight patients (“Group A”) and an additional isolated patient (Patient 5). Group A corresponds to the eleven patients described above, excluding Patient 5 and two other patients lacking analyzable vMRI data.
vMRI data was obtained and subsequently analyzed using FreeSurfer anatomic parcellation and a Tensor-Based Morphometry (TBM) analysis cycle. FreeSurfer is an opensource software package for the analysis and visualization of structural and functional neuroimaging data developed by the Laboratory for Computational Neuroimaging. TBM analysis (also known as Jacobian Integration) consists in estimating the volume changes as captured within the deformation fields resulting from applying a symmetric deformable registration technique between a pair of MR scans (baseline and follow-up), using a non-linear symmetric log-demons deformation technique using robust cross-correlation metric to ensure invertibility of the transformation (symmetric process). The deformation field is then analyzed by computing the determinant of its Jacobian matrix, which is a measure of local volume change. An integration of the determinant over a region of interest provides an estimation of the change rate of the volume of this brain region over time.
The overall pipeline takes as input a baseline (BL) and a follow-up (FU) image and consists of the following steps: • 1. Preprocessing and reformatting; • 2. Segmentation of baseline (BL) and follow-up (FU) using FreeSurfer; • 3. Multi-resolution rigid and affine registration of FU and BL to midspace; • 4. Symmetric deformable nonlinear registration between FU and BL; • 5. Jacobian image computation; • 6. Voxel-wise volume change computation; • 7. Region-wise volume change integration; and • 8. Output for the changes for regions of interest specified for the study.

[3] = system: GM3 expression in C32 human melanoma cells; assay: GM3 fluorescent-linked immunosorbent assay (FLISA), C32; format: cell-based; details: 48 hours
Description: Inhibition of glucosylceramide synthase activity can be measured with one or more assays. A first assay is a microsomal assay that directly measures the conversion of ceramide to glucosylceramide by HPLC. Microsomes are a source of glucosylceramide synthase activity in the microsomal assay. A second assay is a cell based, phenotypic assay that monitors cell surface expression of the downstream lipid GM3 by antibody mediated immunofluorescence. Specific protocols are provided below.
This is a phenotypic assay that measures GM3 expression in B16 mouse melanoma or C32 human melanoma cells following treatment with test compounds. Cell surface GM3 expression is determined by antibody mediated fluorescence.
Compounds are diluted in media and plated in 384 well plates in DMSO. B16 and C32 cells are assayed at densities of 20,000 cells/ml and 62,500 cells/ml, respectively, per well. Each titration curve contains 10 points that are assayed in duplicate on each test run. The plates are incubated for 48 hours at 37° C., 5% CO2, and are then washed once with TBS. Anti-GM3 antibody is added to each well and the plates are then incubated for an additional one hour at room temperature. Plates are subsequently washed twice and incubated for an additional hour with the labeled secondary antibody. Following the final incubation, the plates are washed twice and the fluorescence at λex=D640/20 nm and λem=657 nm is detected on a fluorescent reader.
The results of the microsomal assays are expressed as “GCS IC50,” which represents the concentration of the compound causing 50% inhibition of glucosylceramide synthase activity. The results of the cell-based assays are expressed as “GM3 B16 IC50” or “GM3 C32 IC50” for the B16 assay and the C32 assay, respectively. These values represent the concentration of the compound causing 50% inhibition of GM3 expression on the cell surface.

[4] = Patient 5 (reduced Compound 2 exposure), Week 52 compared to baseline

Question: What does the source list for `CC(C)(NC(=O)O[C@@H]1CN2CCC1CC2)c1csc(-c2ccc(F)cc2)n1` [Compound 2, (S)-quinuclidin-3-yl 2-(2-(4-fluorophenyl)thiazol-4-yl)propan-2-ylcarbamate]?
Answer: effect of a high-fat meal on Compound 2 exposure ([1]; high-fat meal compared with fasting): no effect; Tmax ([1]; male, human, plasma, oral, whether fed or fasting, read-out: Median tmax): 6 h; GL-1 (% change) (glucosylceramide (GL-1); CSF Concentration, N = 6, 15 mg/day + imiglucerase): −55.4%; GL-1 (% change) (glucosylceramide (GL-1); CSF Concentration, N=10, Patient 5 excluded): −79% ± 12.1%; GL-1 concentration, 52-weeks (mean) (glucosylceramide (GL-1); CSF, N=10, Patient 5 excluded, Baseline 7.11 ng/ml): 1.38 ng/mL; GL-1 concentration, 52-weeks (glucosylceramide (GL-1); CSF, Baseline 6.36 ng/ml): 2.48 ng/mL; increase in CSF GL1 (glucosylceramide (GL-1); [4]): ~37%; increase in plasma GL1 (glucosylceramide (GL-1); [4]): ~14%; GL-1 (% change) (glucosylceramide (GL-1); Plasma Concentration, N = 6, 15 mg/day + imiglucerase): −71.6%; GL-1 (% change) (glucosylceramide (GL-1); Plasma Concentration, N=10, Patient 5 excluded): −77% ± 11.7%; GL-1 concentration, 52-weeks (mean) (glucosylceramide (GL-1); Plasma, N=10, Patient 5 excluded, Baseline 5.66 μg/mL): 1280 ng/mL; GL-1 concentration, 52-weeks (glucosylceramide (GL-1); Plasma, Baseline 6.21 μg/mL): 1590 ng/mL; whole brain tissue volume ([2]; Group A, 52 weeks, FIG. 1): overall increase in whole brain tissue volume; Group A mean change in volume from Baseline to Week 52 ([2]; Left Cuneus): +37.16 mm^3; Patient 5 change in volume from Baseline to Week 52 ([2]; Left Cuneus): −23.9 mm^3; Group A mean change in volume from Baseline to Week 52 ([2]; Left Entorhinal Cortex): +34.53 mm^3; Patient 5 change in volume from Baseline to Week 52 ([2]; Left Entorhinal Cortex): +41.4 mm^3; Group A mean change in volume from Baseline to Week 52 ([2]; Left Lingual): +50.08 mm^3; Patient 5 change in volume from Baseline to Week 52 ([2]; Left Lingual): −60.0 mm^3; Group A mean change in volume from Baseline to Week 52 ([2]; Left Pericalcarine Lobe): +18.46 mm^3; Patient 5 change in volume from Baseline to Week 52 ([2]; Left Pericalcarine Lobe): −29.2 mm^3; Group A mean change in volume from Baseline to Week 52 ([2]; Left Putamen): +94.70 mm^3; Patient 5 change in volume from Baseline to Week 52 ([2]; Left Putamen): −51.7 mm^3; whole brain volume ([2]; Patient 5 (did not successfully undergo the treatment regime), 52 weeks, FIG. 1): decrease in whole brain volume; Group A mean change in volume from Baseline to Week 52 ([2]; Right Accumbens Area): +12.86 mm^3; Patient 5 change in volume from Baseline to Week 52 ([2]; Right Accumbens Area): −52.1 mm^3; Group A mean change in volume from Baseline to Week 52 ([2]; Right Amygdala): +60.78 mm^3; Patient 5 change in volume from Baseline to Week 52 ([2]; Right Amygdala): −63.4 mm^3; Group A mean change in volume from Baseline to Week 52 ([2]; Right Postcentral Lobe): +91.66 mm^3; Patient 5 change in volume from Baseline to Week 52 ([2]; Right Postcentral Lobe): −63.4 mm^3; Group A mean change in volume from Baseline to Week 52 ([2]; Right Putamen): +97.84 mm^3; Patient 5 change in volume from Baseline to Week 52 ([2]; Right Putamen): −63.1 mm^3; IC50 [3]: 9.6 µM
